Laboratory results: patent publication US20230147683A1, “TREATMENT” (UNION Therapeutics A/S, priority 2020, published 2023)

Tested on: European D614G strain of SARS-CoV-2 (BavPat1/2020)
Type: cell-based

In the case of `O=C(Nc1ccc([N+](=O)[O-])cc1Cl)c1cc(Cl)ccc1O` [niclosamide ethanolamine], the “reduction of intracellular viral RNA level compared to non-treated control” value is reported as 3 fold.
